Experiments:
cotton = assay: Preemergent control of plant species; assay type: in vivo, Gossypium spp.; conditions: Gossypium hirsutum, pre-emergence, 336 h; 0.25 lb/acre; read-out: percent preemergent control
Method in brief: (§1)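 Seeds sown in agricultural soil in greenhouse beds, then aqueous-emulsion compositions applied uniformly to the bed surface at listed rates. Beds kept two weeks under greenhouse growth conditions with watering. Control expressed as growth reduction versus water-treated beds of the same species.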

annual morning glory [1] = assay: Postemergent control of plant species; assay type: in vivo, Ipomoea spp.; conditions: Ipomoea, post-emergence, 336 h, read-out: percent postemergent control
Method in brief: (§2)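 Compounds in acetone mixed 1:1 with water containing 0.1% surfactant, sprayed postemergence on greenhouse plants at the 2-4 leaf stage. Growth reduction versus untreated plants of the same species scored after about two weeks.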

yellow foxtail [2] = assay: Preemergent control of plant species; assay type: in vivo, Setaria lutescens; conditions: Setaria, pre-emergence, 336 h; 0.25 lb/acre; read-out: percent preemergent control
Method in brief: as §1

annual morning glory [3] = assay: Preemergent control of plant species; assay type: in vivo, Ipomoea spp.; conditions: Ipomoea, pre-emergence, 336 h; 0.25 lb/acre; read-out: percent preemergent control
Method in brief: as §1

wild oats = assay: Preemergent control of plant species; assay type: in vivo; conditions: Avena fatua, pre-emergence, 336 h; 0.25 lb/acre; read-out: percent preemergent control
Method in brief: as §1

barnyardgrass = assay: Postemergent control of plant species; assay type: in vivo, Echinochloa crusgalli; conditions: Echinochloa crus-galli, post-emergence, 336 h, read-out: percent postemergent control
Method in brief: as §2

soybean [4] = assay: Preemergent control of plant species; assay type: in vivo, Glycine max.; conditions: Glycine max, pre-emergence, 336 h; 0.25 lb/acre; read-out: percent preemergent control
Method in brief: as §1

velvetleaf = assay: Postemergent control of plant species; assay type: in vivo, Abutilon theophrasti; conditions: Abutilon theophrasti, post-emergence, 336 h, read-out: percent postemergent control
Method in brief: as §2

yellow foxtail [5] = assay: Postemergent control of plant species; assay type: in vivo, Setaria lutescens; conditions: Setaria, post-emergence, 336 h, read-out: percent postemergent control
Method in brief: as §2

wheat [6] = assay: Postemergent control of plant species; assay type: in vivo, Triticum aestivum; conditions: Triticum aestivum, post-emergence, 336 h, read-out: percent postemergent control
Method in brief: as §2

johnson grass [7] = assay: Postemergent control of plant species; assay type: in vivo, Sorghum halepense; conditions: Sorghum halepense, post-emergence, 336 h, read-out: percent postemergent control
Method in brief: as §2

yellow nutsedge = assay: Postemergent control of plant species; assay type: in vivo, Cyperus esculentus; conditions: Cyperus, post-emergence, 336 h, read-out: percent postemergent control
Method in brief: as §2

rice = assay: Postemergent control of plant species; assay type: in vivo, Oryza sativa; conditions: Oryza sativa, post-emergence, 336 h, read-out: percent postemergent control
Method in brief: as §2

corn = assay: Preemergent control of plant species; assay type: in vivo, Zea mays; conditions: Zea mays, pre-emergence, 336 h; 0.25 lb/acre; read-out: percent preemergent control
Method in brief: as §1

jimsonweed = assay: Postemergent control of plant species; assay type: in vivo, Datura stramonium; conditions: Datura stramonium, post-emergence, 336 h, read-out: percent postemergent control
Method in brief: as §2

crabgrass [8] = assay: Postemergent control of plant species; assay type: in vivo, Digitaria spp.; conditions: Digitaria sanguinalis, post-emergence, 336 h, read-out: percent postemergent control
Method in brief: as §2

johnson grass [9] = assay: Preemergent control of plant species; assay type: in vivo, Sorghum halepense; conditions: Sorghum halepense, pre-emergence, 336 h; 0.25 lb/acre; read-out: percent preemergent control
Method in brief: as §1

rape = assay: Postemergent control of plant species; assay type: in vivo, Brassica napus; conditions: Brassica napus, post-emergence, 336 h, read-out: percent postemergent control
Method in brief: as §2

soybean [10] = assay: Postemergent control of plant species; assay type: in vivo, Glycine max.; conditions: Glycine max, post-emergence, 336 h, read-out: percent postemergent control
Method in brief: as §2

pigweed = assay: Postemergent control of plant species; assay type: in vivo, Amaranthus spp.; conditions: Amaranthus retroflexus, post-emergence, 336 h, read-out: percent postemergent control
Method in brief: as §2

[11] = system: nitrification of ammonium nitrogen; assay: Suppression of nitrification of ammonium nitrogen in soil; conditions: 27° C.
Method in brief: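 Soil (20 g) moistened to its 1/3 bar tension value, mixed with test chemical and incubated sealed for two weeks at 27° C. Nitrate extracted with ammonium sulfate solution and measured by nitrate-specific ion electrode; value given as % NH4-N remaining.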

wheat [12] = assay: Preemergent control of plant species; assay type: in vivo, Triticum aestivum; conditions: Triticum aestivum, pre-emergence, 336 h; 0.25 lb/acre; read-out: percent preemergent control
Method in brief: as §1

cocklebur = assay: Postemergent control of plant species; assay type: in vivo, Xanthium spp.; conditions: Xanthium strumarium, post-emergence, 336 h, read-out: percent postemergent control
Method in brief: as §2

crabgrass [13] = assay: Preemergent control of plant species; assay type: in vivo, Digitaria spp.; conditions: Digitaria sanguinalis, pre-emergence, 336 h; 0.25 lb/acre; read-out: percent preemergent control
Method in brief: as §1

| Compound | plant injury at 280.212 g/ha (cotton) [%] | pest or weed control at 500 ppm (annual morning glory [1]) [%] | pest or weed control at 280.212 g/ha (annual morning glory [3]) [%] | pest or weed control at 500 ppm (barnyardgrass) [%] | plant injury at 280.212 g/ha (soybean [4]) [%] | pest or weed control at 500 ppm (velvetleaf) [%] | pest or weed control at 500 ppm (yellow foxtail [5]) [%] | plant injury at 500 ppm (wheat [6]) [%] | pest or weed control at 500 ppm (johnson grass [7]) [%] | pest or weed control at 500 ppm (yellow nutsedge) [%] | plant injury at 500 ppm (rice) [%] | plant injury at 280.212 g/ha (corn) [%] | pest or weed control at 500 ppm (jimsonweed) [%] | pest or weed control at 500 ppm (crabgrass [8]) [%] | pest or weed control at 280.212 g/ha (johnson grass [9]) [%] | plant injury at 500 ppm (rape) [%] | plant injury at 500 ppm (soybean [10]) [%] | pest or weed control at 500 ppm (pigweed) [%] | % NH4-N Remaining After 2 Weeks Incubation ([11]; 1 ppm) [%] | plant injury at 280.212 g/ha (wheat [12]) [%] | further results |
| --- | --- | --- | --- | --- | --- | --- | --- | --- | --- | --- | --- | --- | --- | --- | --- | --- | --- | --- | --- | --- | --- |
| CC(=O)N(c1c(Cl)cccc1Cl)S(=O)(=O)c1nc2nc(C)cc(C)n2n1 [Compound 262] | 90 | 100 | 90 | 100 | 100 | 100 | 100 | 10 | 100 | 80 | 40 | 80 | 100 | 95 | 60 | 100 | 95 | 100 | 75 | 0 | pest or weed control at 280.212 g/ha (yellow foxtail [2]): 95%; pest or weed control at 280.212 g/ha (wild oats): 50%; % NH4-N Remaining After 2 Weeks Incubation ([11]; 0.06 ppm): 28%; % NH4-N Remaining After 2 Weeks Incubation ([11]; 0.25 ppm): 49%; % NH4-N Remaining After 2 Weeks Incubation ([11]; 4 ppm): 89% |
| Cc1cc(C)n2nc(S(=O)(=O)Nc3ccccc3I)nc2n1 [Compound 6] | 70 | 80 | 0 | 35 | 10 | 90 | 0 | 0 | 80 | 90 | 20 | 0 | 30 | 20 | 0 | 80 | 70 | 30 | 78 | 0 | pest or weed control at 500 ppm (cocklebur): 90%; pest or weed control at 280.212 g/ha (crabgrass [13]): 0%; % NH4-N Remaining After 2 Weeks Incubation ([11]; 0.01 ppm): 15%; % NH4-N Remaining After 2 Weeks Incubation ([11]; 0.1 ppm): 55%; % NH4-N Remaining After 2 Weeks Incubation ([11]; 10 ppm): 87% |
| Cc1cc(C)n2nc(S(=O)(=O)Nc3ccc(Cl)cc3C(F)(F)F)nc2n1 [Compound 34] | 80 | 75 | 20 | 0 | 80 | 100 | 0 | 0 | 20 | 60 | 0 | 0 | 90 | 0 | 80 | 100 | 90 | 100 | 78 | 0 | pest or weed control at 280.212 g/ha (yellow foxtail [2]): 0%; pest or weed control at 280.212 g/ha (wild oats): 0%; pest or weed control at 500 ppm (cocklebur): 100%; pest or weed control at 280.212 g/ha (crabgrass [13]): 0%; % NH4-N Remaining After 2 Weeks Incubation ([11]; 0.01 ppm): 11%; % NH4-N Remaining After 2 Weeks Incubation ([11]; 0.1 ppm): 51%; % NH4-N Remaining After 2 Weeks Incubation ([11]; 10 ppm): 90% |
| CCc1cccc(CC)c1NS(=O)(=O)c1nc2nc(C)cc(C)n2n1 [Compound 33] | 20 | 60 | 0 | 0 | 10 | 80 | 0 | 0 | 60 | 10 | 0 | 0 | 40 | 0 | 0 | 60 | 40 | 10 | 77 | 40 | pest or weed control at 280.212 g/ha (yellow foxtail [2]): 0%; pest or weed control at 280.212 g/ha (wild oats): 40%; pest or weed control at 500 ppm (cocklebur): 60%; pest or weed control at 280.212 g/ha (crabgrass [13]): 10%; % NH4-N Remaining After 2 Weeks Incubation ([11]; 0.01 ppm): 8%; % NH4-N Remaining After 2 Weeks Incubation ([11]; 0.1 ppm): 42%; % NH4-N Remaining After 2 Weeks Incubation ([11]; 10 ppm): 88% |
| Cc1cc(C)n2nc(S(=O)(=O)Nc3ccccc3[N+](=O)[O-])nc2n1 [Compound 12] | 95 | 100 | 50 | 80 | 95 | 95 | 20 | 0 | 55 | 90 | 25 | 50 | 70 | 25 | 80 | 100 | 80 | 100 | 87 | 0 | pest or weed control at 280.212 g/ha (yellow foxtail [2]): 0%; pest or weed control at 280.212 g/ha (wild oats): 0%; pest or weed control at 500 ppm (cocklebur): 100%; pest or weed control at 280.212 g/ha (crabgrass [13]): 10%; % NH4-N Remaining After 2 Weeks Incubation ([11]; 0.06 ppm): 40%; % NH4-N Remaining After 2 Weeks Incubation ([11]; 0.125 ppm): 70%; % NH4-N Remaining After 2 Weeks Incubation ([11]; 0.25 ppm): 74%; % NH4-N Remaining After 2 Weeks Incubation ([11]; 0.5 ppm): 83% |
